Laboratory results published in the supplement of paper PMC10883282.

How the values were obtained:
Assay in all cases: standardised AUC of viability dose-response curve (72 h) (fraction (0-1)); higher = less growth inhibition (more resistant)
KHOS-240S = tested on: KHOS-240S
How it was run: (§1)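 After 72 h with 2.5 µl of compound (compound-plate series 10 mM to 0.0002 mM), triplicate wells of sarcoma cell lines in 384-well plates were read with ATPLite, with viability scaled 1 (full) to 0 (none) and fitted with a four-parameter log-logistic model. The values give the standardised area under the dose-response curve in log-dose space from a modified drexplorer computeAUC. A value of 1 means no response and 0 means full response.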

SYO-1 = tested on: SYO-1
How it was run: as §1

SK-ES-1 = tested on: SK-ES-1
How it was run: as §1

SW1353 = tested on: SW1353
How it was run: as §1

HT1080 = tested on: HT1080
How it was run: as §1

G401 = tested on: G401
How it was run: as §1

KHOS-NP = tested on: KHOS-NP
How it was run: as §1

MES-SA = tested on: MES-SA
How it was run: as §1

SW872 = tested on: SW872
How it was run: as §1

SK-LMS-1 = tested on: SK-LMS-1
How it was run: as §1

RD-ES = tested on: RD-ES
How it was run: as §1

SW684 = tested on: SW684
How it was run: as §1

HS729 = tested on: HS729
How it was run: as §1

RD = tested on: RD
How it was run: as §1

A204 = tested on: A204
How it was run: as §1

SW982 = tested on: SW982
How it was run: as §1

VA-ES-BJ = tested on: VA-ES-BJ
How it was run: as §1

Structure (SMILES)	standardised AUC (KHOS-240S)	standardised AUC (SYO-1)	standardised AUC (SK-ES-1)	standardised AUC (SW1353)	standardised AUC (HT1080)	standardised AUC (G401)	standardised AUC (KHOS-NP)	standardised AUC (MES-SA)	standardised AUC (SW872)	standardised AUC (SK-LMS-1)	standardised AUC (RD-ES)	standardised AUC (SW684)	standardised AUC (HS729)	standardised AUC (RD)	standardised AUC (A204)	standardised AUC (SW982)	standardised AUC (VA-ES-BJ)
C1=N/C2=N/c3ccc(OCCN4CCCC4)c(c3)COC/C=C/COCc3cccc(c3)C(=C1)N2 [PACRITINIB]	0.811	0.747	0.714	0.836	0.853	0.793	0.898	0.787	0.786	0.897	0.792	0.758	0.855	0.781	0.736	0.733	0.753
NC(=O)c1cnc2[nH]ccc2c1N[C@@H]1[C@@H]2CC3C[C@H]1C[C@@](O)(C3)C2 [PEFICITINIB]	0.955	0.888	0.938	1	1	1	0.982	0.949	0.977	0.985	0.983	0.988	0.988	1	0.912	0.929	0.995
CCCCCCCCCCCCCCCCCCOP(=O)([O-])OC1CC[N+](C)(C)CC1 [PERIFOSINE]	0.983	0.946	0.952	0.962	0.966	0.994	0.966	0.954	0.915	0.941	0.994	0.999	0.924	0.996	0.982	0.99	0.968
FC(F)(F)c1ccc(CNc2ccc(Cc3c[nH]c4ncc(Cl)cc34)cn2)cn1 [PEXIDARTINIB]	0.975	0.861	0.97	0.935	0.953	0.946	0.955	0.978	0.939	0.979	0.991	0.974	0.903	1	0.837	1	0.976
Cc1cn(-c2cc(NC(=O)c3ccc(C)c(Nc4nccc(-c5cnccn5)n4)c3)cc(C(F)(F)F)c2)cn1 [RADOTINIB]	0.988	0.929	0.999	1	0.997	0.977	0.992	1	0.967	1	0.996	1	0.976	0.992	0.894	0.995	1
CO[C@H]1C[C@@H]2CC[C@@H](C)[C@@](O)(O2)C(=O)C(=O)N2CCCC[C@H]2C(=O)O[C@H]([C@H](C)C[C@@H]2CC[C@@H](O)[C@H](OC)C2)CC(=O)[C@H](C)/C=C(\C)[C@@H](O)[C@@H](OC)C(=O)[C@H](C)C[C@H](C)/C=C/C=C/C=C/1C [RAPAMYCIN]	0.815	0.846	0.63	0.856	0.916	0.814	0.989	0.489	0.729	0.665	0.778	0.763	0.944	0.712	0.607	0.724	0.589
C=CC(=O)Nc1cccc(Nc2nc(Nc3ccc(N4CCN(C(C)=O)CC4)cc3OC)ncc2C(F)(F)F)c1 [ROCILETINIB]	0.929	0.867	0.831	0.889	0.973	0.886	0.975	0.874	0.912	0.893	0.857	0.937	0.878	0.899	0.912	0.906	0.921
CN(C)C[C@@H]1CCn2cc(c3ccccc32)C2=C(C(=O)NC2=O)c2cn(c3ccccc23)CCO1 [RUBOXISTAURIN]	0.99	0.861	0.911	0.947	0.995	0.954	0.99	0.951	0.953	0.929	0.945	0.991	0.969	0.99	0.926	0.947	0.946
CN1CCN(CCOc2cc(OC3CCOCC3)c3c(Nc4c(Cl)ccc5c4OCO5)ncnc3c2)CC1 [SARACATINIB]	0.884	0.851	0.931	0.865	0.981	0.918	0.951	0.943	0.858	0.908	0.955	0.977	0.849	0.871	0.906	0.821	0.938
CNC(=O)c1cc(Oc2ccc(NC(=O)Nc3ccc(Cl)c(C(F)(F)F)c3)cc2)ccn1 [SORAFENIB]	0.93	0.841	0.949	0.951	0.944	0.916	0.907	0.925	0.978	0.917	0.966	0.936	0.943	0.951	0.756	0.975	0.95
CCN(c1cc(-c2ccc(CN3CCOCC3)cc2)cc(C(=O)NCc2c(C)cc(C)[nH]c2=O)c1C)C1CCOCC1 [TAZEMETOSTAT]	0.971	0.971	0.96	0.973	0.988	0.989	0.963	0.976	0.986	0.977	0.985	0.998	0.946	0.997	0.998	0.985	1
Cc1cccc(-c2[nH]c(CNc3ccccc3F)nc2-c2ccc3ncnn3c2)n1 [VACTOSERTIB]	0.957	0.911	0.997	0.992	1	0.993	0.989	0.991	1	0.995	0.99	0.959	0.917	0.996	0.982	0.995	1
C[C@@H]1COC(Nc2ccc3ncnc(Nc4ccc(OCc5nccs5)c(Cl)c4)c3c2)=N1 [VARLITINIB]	0.975	0.97	0.97	0.928	0.974	0.953	0.992	0.954	0.962	0.987	0.989	0.994	0.955	1	0.918	0.975	0.994
CC[C@@H]1C(=O)N(C)c2cnc(Nc3ccc(C(=O)N[C@H]4CC[C@H](N5CCN(CC6CC6)CC5)CC4)cc3OC)nc2N1C(C)C [VOLASERTIB]	0.534	0.453	0.52	0.723	0.601	0.653	0.642	0.555	0.578	0.635	0.504	0.693	0.766	0.533	0.647	0.547	0.531
